Reference: patent publication US10058526B2, “Compositions containing pheromones for treating behavioural or medical problems linked to the stress of non-human mammals” (CEVA SANTE ANIMALE, priority 2014, dated 2018)
Structures can show the parent of a compound that is named as a salt.

Experiment: Diffusion of solvents in a 5.6 W electric diffuser (Example 1)
Format: physicochemical
Conditions: 48 ml solvent, average per day over 30 days
Experimental: 48 ml of solvent to be tested are placed in a 5.6 W electric diffuser. The amount of solvent diffused is measured for 30 days following plugging in of the diffuser, and the average diffusion of product per day is calculated and summarized in Table 1 below: […]

Row | Molecule | Diffusion of product [g/day]
1 | CC(C)OC(=O)CCCCCCCCC(=O)OC(C)C [Diisopropyl sebacate] | 1
2 | CC(C)CCCCCCOC(=O)CCCCCC(C)C [Isononyl isononanoate] | 2
3 | CCCCCCCCCCCCCC(=O)OC(C)C [Isopropyl myristate] | 1
4 | CO[C@H]1CO[C@H]2[C@@H]1OC[C@H]2OC [Isosorbide dimethyl ether] | 2
5 | Glycofurol | 0.5

The next lines start with the values.

Row | Diffusion of product [g/day] | Molecule
6 | 4 | CC1COC(=O)O1 (stereo not shown) [Propylene carbonate]
7 | 1 | CCOC(=O)CC(O)(CC(=O)OCC)C(=O)OCC [Triethyl citrate]
